Assay results as given in paper PMC6368365, “Didehydro-Cortistatin A Inhibits HIV-1 by Specifically Binding to the Unstructured Basic Region of Tat” (mBio, 2019).
Peptide text beside a SMILES is read from it. * marks the point of attachment. Cbz = O=C(OCc1ccccc1)*

Assays:
[1] = MTT viability assay, 72 h; format: cell-based; conditions: human, HeLa-CD4-LTR-LacZ cells, mean ± SD, n = 2 to 3
Procedure: The assay was performed with MTT [3-(4,5-dimethyl-2-thiazolyl)-2,5-diphenyl-2H-tetrazolium bromide] as described in reference.

NL4-3 strain = experiment: HIV-1 NL4-3 infection of HeLa-CD4-LTR-LacZ reporter cells, LacZ measured 72 h later; format: cell-based; conditions: Human immunodeficiency virus 1, NL43; HeLa-CD4-LTR-LacZ cells infected with NL4-3, LacZ at 72 h; mean ± SD, n = 2 to 3; read-out: IC50
From the text: To understand the structure-function relationship of the dCA molecule with respect to our structural model, we synthesized and characterized the ability of 11 analogs of dCA to inhibit HIV infection (Table 2). […] We used HeLa-CD4 cells stably expressing the HIV-1 5′ LTR driving β-galactosidase production (HeLa-CD4-LTR-LacZ cells) as a reporter for the infection with isolate NL4-3. Table 2 summarizes the IC50, 50% cytotoxic concentration (CC50), and therapeutic index (TI) for each compound. The loss of dCA activity was directly associated with the positioning and the chemical environment of the azote on the F ring and the presence of oxygen in ring B. Moreover, the E-F “skeleton angle” and the distance between the A-B-C-D and F rings affected the activity by more than 50-fold (analogs 7 and 10).
The activity of Tat in HeLa-CD4-LTR-Luc and OM10.1 cells was verified by a transactivation assay as described in reference. In HeLa-CD4-LTR-LacZ cells, the assay was performed as described in reference. A detailed protocol is provided in Text S1.
Transactivation assay. In HeLa-CD4-LTR-Luc cells and OM10.1 cells. The activity of Tat was verified by a transactivation assay as previously reported (13). Briefly, HeLa-CD4-LTR-Luc cells and OM10.1 were plated at 1×10^5 and 8x10^5 cells per well of a 6-well plate respectively. The following day, recombinant Tat protein was added to the cells in culture media without serum and in the presence of 100 μM of Chloroquine. Five hours later, serum was added at 5 % to the culture media. Cells were lysed 24 hrs later, protein concentration determined by Bradford assay and luciferase activity was measured for HeLa-CD4-LTR-Luc cells. Results corresponding to luciferase activity per protein concentration of each sample are shown as relative light unit (RLU). As for the OM10.1 cells, RNA was extracted using the RNA extraction kit (Qiagen) and DNA contamination was removed using Turbo-DNAse kit (Ambion). First-strand cDNA was synthesized using SuperscriptIII^TM first-strand cDNA kit (Invitrogen) and random hexamers as first-strand primers. qRT-PCR was performed with an aliquot of cDNA as template, using LightCycler? 480 SYBR Green I Master in a 20 µL reaction according to the manufacturer’s instructions. The mRNAs from each sample were used as negative control. Primer sequences for GAPDH (13) and all viral mRNAs as previously described (59). In HeLa-CD4-LTR-LacZ cells. It was performed as previously described (10). Briefly, cells were plated at 1×10^4 cells per well of a 96-well plate. Twenty-four hrs later HIV-1 NL4-3 strain was added in the presence of testing compound or DMSO. Seventy-two hrs post infection, cells were disrupted in lysis buffer (60 mM Na2HPO4, 40 mM NaH2PO4, 10 mM KCl, 10 mM MgSO4, 2.5 mM EDTA, 50 mM ß-mercaptoethanol, 0.125 % Nonidet P-40) and a quantitative chlorophenol red-ß-D-galactopyranoside (CPRG)-based (Boehringer Mannheim) assay was performed. The cell extracts were incubated in a reaction buffer (0.9 M phosphate buffer [pH 7.4], 9 mM MgCl2, 11 mM ß-mercaptoethanol, 7 mM CPRG) until a red color developed and measured with an LP400 (Becton Dickinson) plate reader at 572 nm.

Pep B-TAR interaction = biological target: T1, Pep B-TAR interaction (Human immunodeficiency virus type 1 group M subtype B, UniProt P20879); experiment: EMSA of Tat's basic peptide (Pep B) with TAR; format: biochemical, HIV-1; conditions: Tat basic peptide residues 45 to 59
T1 construct: Pep B is a peptide encompassing the basic domain of HIV Tat (^45ISYGRKKRRQRRRAP^59)
From the text: FIG 6 dCA binding to Tat disrupts Tat-TAR interaction. (A) EMSA of full-length Tat with TAR in the presence of dCA. Raltegravir (Ralt.) and deleted bulge TAR (ΔTAR) were used as negative controls. Data are representative of n = 3 independent experiments. (B) EMSA of Tat’s basic domain with TAR in the presence of increasing concentrations of dCA to Tat’s basic peptide. Pep B is a peptide encompassing the basic domain of HIV Tat (^45ISYGRKKRRQRRRAP^59). Pep C (^69LSKQPASQPRGDPTG^83) and unlabeled or cold TAR (TARc) were used as negative controls. Neomycin, which binds to Tat and TAR, was used as a positive control. Ratios of compounds (or TARc) concentrations to peptide are shown. Data are representative of n = 3 independent experiments. […] Shown are ITC results from binding of dCA (left) or Tat peptide (right) to TAR at 25°C. […] For the lower plots, results were converted to molar heats and plotted against the molar ratio of dCA or peptide to RNA. Data are representative of n = 2 independent experiments. (D) Tat-TAR interaction blocked by dCA in HeLa-CD4-LTR-Luc cells in vivo. Cells transfected with Tat or Tat Mut (arginine residues mutated to alanine in Tat’s basic domain) were incubated with DMSO or the indicated compounds (25 nM). Forty-eight hours later, cells were either lysed to determine the luciferase activity or cross-linked for ChIP assays. Luciferase activity was determined relative to protein concentration (Bradford assay) (Fig. S9A). Western blotting was performed to verify the amount of Tat under each condition (Fig. S9B). ChIP of Tat was followed by qRT-PCR of TAR DNA. The results are presented as percentage of input. The mean ± SEM is represented. Data are representative of n = 3 independent experiments. Statistical significance was determined using one-way ANOVA with post hoc Tukey’s test with 3 technical replicates. ns, not significant; ***, P < 0.0001.
We also performed the same experiment with a peptide encompassing the basic domain of Tat (Pep B; residues 45 to 59) and dCA.
EMSA With full-length Tat: similar protocol was performed as in Das et al. (60). […]

intracellular Tat = biological target: T2, intracellular Tat (Human immunodeficiency virus type 1 group M subtype B, UniProt P69697); experiment: Steady state of recombinant Tat in HeLa-CD4-LTR-Luc cells (Western blot); format: cell-based, HIV-1; conditions: 6 hours with compound, MG132 10 μM
T2 construct: pTatC6H-1 (NIH AIDS Reagent Program) plasmid encoding C-terminal 6xHistidine Tat1-86 (HXB3, subtype B); made in house; host or cells: E. coli BL21 (plasmid pTatC6H-1, NIH AIDS Reagent Program)
T2 sequence (P69697 whole entry): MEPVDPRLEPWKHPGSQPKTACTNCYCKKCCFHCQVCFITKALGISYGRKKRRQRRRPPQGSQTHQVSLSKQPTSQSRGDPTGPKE
Procedure: FIG 5 dCA stabilizes Tat structure. (A) Trp fluorescence assays. (Left) Schematic of the assay. (Center) DMSO, dCA (7.5× Tat concentration) or raltegravir (Ralt.; 7.5× Tat concentration) was incubated with Tat. The fluorescence of the Trp^11 of Tat protein was measured at the indicated wavelengths. Acrylamide (250 mM) was used as a quenching control of Tat fluorescence. (Right) Peak absorbance (λmax) versus increasing fold ratios of compounds to Tat protein. Data are representative of n = 3 independent experiments. (B) DARTS assays. Tat was incubated with DMSO or dCA, at increasing concentrations, in the presence of increasing concentrations of proteinase K (PK). […] Data are representative of n = 2 independent experiments. (C) Steady state of Tat in the presence of dCA in vivo. HeLa-CD4-LTR-Luc cells were incubated with recombinant Tat and then washed and incubated with the indicated compounds for 6 hours. […] (Left) Western blot representative of n = 4 independent experiments. MG132 was used as a positive control of Tat protection from degradation, and raltegravir was used as a negative control. (Right) Densitometry of the Tat band normalized to the actin band. Results represent the mean ± SEM from n = 4 independent experiments. Statistical significance was determined using one-way ANOVA with post hoc Tukey’s test. ns, not significant; ***, P < 0.0001; **, P < 0.001.
Next, we determined the half-life of recombinant Tat in HeLa-CD4-LTR-Luc cells in the presence of dCA (Fig. 5C). We incubated recombinant Tat with cells for 4 hours, and after several washes to remove extracellular Tat protein, we incubated cells with DMSO, dCA, or raltegravir for an additional 6 hours. Western blotting with anti-His antibody was performed to reveal intracellular Tat. […]
Half-life of Tat in vivo. […] Total protein concentration was assessed by Bradford assay and Tat protein in each condition determined by western blot with an anti-His antibody at 1:1500 dilution (Thermofisher). […]

[2] = system: CA-sensitive AML cell lines; design: method as in PMID 16522087, PMID 17765550, PMID 26416749; conditions: read-out: IC50, antileukemic activity; cited from earlier work
[3] = system: human umbilical vein endothelial cells (HUVECs); design: method as in PMID 16522087, PMID 17765550, PMID 26416749; conditions: read-out: EC50, antiproliferative; cited from earlier work

| Molecule | CC50 at 72 h [1] | IC50 (NL4-3 strain) | further results |
| --- | --- | --- | --- |
| Cc1n[nH]c2cc(C3=CCC4C3(C)CC=C3C=C5C(O)C(O)C(N(C)C)CC56CCC34O6)ccc12 (centres unmarked) [# 6] | 12100 ± 800 nM | 67.5 ± 6.8 nM |  |
| neomycin |  |  | inhibition of Pep B-TAR interaction (EMSA) (Pep B-TAR interaction): inhibited the interaction of Pep B with TAR |
| CN(C)C1CC23CCC4(O2)C(=CCC2(C)C(c5ccc6cnncc6c5)=CCC24)C=C3C(O)C1O (centres unmarked) [# 5] | 16400 nM | 141 nM |  |
| CC(C)C[C@@H](C=O)NC(=O)[C@H](CC(C)C)NC(=O)[C@H](CC(C)C)NC(=O)OCc1ccccc1 [MG132] (Cbz-Leu-Leu-Leu-aldehyde) |  |  | percentage of remaining Tat (intracellular Tat): 40% |
| CC(=O)N(C)C1CC23CCC4(O2)C(=CCC2(C)C(c5ccc6ccncc6c5)=CCC24)C=C3C(O)C1O (centres unmarked) [# 3] | 5600 nM | 37 ± 5.8 nM |  |
| CN(C)[C@H]1C[C@@]23CC[C@@]4(O2)C(=CC[C@]2(C)[C@@H](c5ccc6ccncc6c5)CC[C@H]24)C=C3[C@@H](O)[C@@H]1O [CA, cortistatin A] |  |  | IC50 [2]: ~10 nM; EC50 [3]: 350 nM |
| CN(C)C1CC23CCC4(O2)C(=CCC2(C)C(c5ccc6ccncc6c5)C(=O)CC42)C=C3C(O)C1O (centres unmarked) [# 9] | > 50000 nM | 0.5 ± 0.1 nM |  |
| CC12CC=C3C=C4C(O)C(O)C(N)CC45CCC3(O5)C1CC=C2c1ccc2ccncc2c1 (centres unmarked) [# 4] | 23100 ± 300 nM | 4 ± 0.5 nM |  |
